# Measurements from patent EP0535528A1, “Antibacterial 5-Nitro-1-methyl-imidazolyl-3-terbutyl-2-hydroxy-aryl-carbinols” (EURORESEARCH S.r.L., priority 1991, dated 1993).
# Like-named read-outs stand apart in the source and are kept apart here.
# Tests used:
# [1] = Oral and intraperitoneal acute toxicity in mice (LD50, Probits method); type: in vivo; conditions: mouse, in vivo, Swiss female mice, 14 days observation
# Protocol: (§1) 20 Swiss female albino mice are used for this test of the average weight of 20 g (±2), coming from Nossan breeding .
# (§2) Cages: in Makrolon® with saw dust litter, Number of animals per cage: 5 Acclimation period: 1 week Temperature: 22°C (± 2°C) Humidity : 60%, Diet: pellets for mice produced by Nossan firm, Water ad libitum Fast before the treatment: 16 hours
# (§3) Oral by gastric route and intraperitoneal.
# (§4) The substances to be studied: EU11100, EU11102, EU11103, EU11104 are treated with 0.5% carboxymethylcellulose in spring water, for the oral administration, whereas the same substances are intraperitoneally administered in the form of a physiological solution .
# (§5) For each of the above mentioned substances, a mother suspension is prepared having a concentration in the active ingredient of 250 mg/ml for the oral administration, and analogously a mother suspension is prepared for the intraperitoneal administration having a concentration of the desired active principle of 100 mg/ml.
# (§6) The following doses are used • a) oral route: 5000 mg/kg • b) intraperitoneal route : 2000 mg/kg
# (§7) If mortality is observed at the above mentioned doses, other doses are administered in order to obtain a dose-response curve.
# (§8) 5 animals are used for every utilized concentration.
# (§9) After the administration of the above substances the animals are kept under observation for 14 days , during which the mortality and the behaviour is observed.
# (§10) LD₅₀ is determined on the base of the cumulative mortality observed in the successive 14 days after the administration by using the Probits method.
# Swiss female albino mice = test: as above; type: in vivo; conditions: for Mortality per day: 5 animals; for mortality: intraperitoneal
# Protocol: as §1, §2, §3, §4, §5, §6, §7, §8, §9, §10
compound,measurement,setting,value
"COc1cc(C(O)c2ncc([N+](=O)[O-])n2C)c(O)c(C(C)(C)C)c1 (centres unmarked) [EU11100, 5-nitro-1-methyl-imidazolyl-3-terbutyl-2-hydroxy-5-methoxy-phenyl-carbinol]",LD50 at 336 h,"[1]; po, per os, read-out: LD50 os",> 5000 mg/kg
same,LD50 at 336 h,"[1]; ip, read-out: LD50 i.p.",890 mg/kg
same,LD50 i.p.,"Swiss female albino mice; Swiss female mice, ip, 14 days observation, 20160 min",LD50 i.p.= 890 mg/Kg (confidence limits: 781 - 1014)
same,Observation on the behaviour,"Swiss female albino mice; ip, 500 mg/Kg",500 mg/Kg: no alteration
same,Mortality per day,"Swiss female albino mice; ip, 500 mg/Kg, day 1",0
same,Observation on the behaviour,"Swiss female albino mice; ip, 750 mg/Kg",750 mg/Kg: motor activity reduction
same,Mortality per day,"Swiss female albino mice; ip, 750 mg/Kg, day 1",1
same,Mortality per day,"Swiss female albino mice; ip, 1000 mg/Kg, day 1",3
same,Mortality per day,"Swiss female albino mice; ip, 1500 mg/Kg, day 1",5
same,Mortality per day,"Swiss female albino mice; ip, 2000 mg/Kg, day 1",5
same,Death within (time),"Swiss female albino mice; ip, doses 2000 - 1500 - 1000 mg/Kg",6 to 24 h
same,Observation on the behaviour,"Swiss female albino mice; ip, doses 2000 - 1500 - 1000 mg/Kg, after 15-30'","considerable behaviouristic alteration, such as the loss of body-righting reflex"
same,Observation on the behaviour,"Swiss female albino mice; ip, doses 2000 - 1500 - 1000 mg/Kg, after 15-30', listed as EU 11100",considerable reduction motor activity and subsequent loss of body righting reflex
same,mortality,"Swiss female albino mice; mice, 1500 mg/kg",100%
same,mortality,"Swiss female albino mice; mice, 2000 mg/kg",100%
same,toxicity when intraperitoneally administered,"Swiss female albino mice; mice, intraperitoneal, 2000, 1500 and 1000 mg/kg",toxic
same,toxicity when orally administered,"Swiss female albino mice; mice, oral, 5000 mg/kg",not toxic
same,Observation on the behaviour,"Swiss female albino mice; os, 5000 mg/Kg",No alteration
same,Mortality per day,"Swiss female albino mice; os, 5000 mg/Kg, day 1",0
same,Mortality per day,"Swiss female albino mice; os, 5000 mg/Kg, day 2",0
same,Mortality per day,"Swiss female albino mice; os, 5000 mg/Kg, day 3",0
same,Mortality per day,"Swiss female albino mice; os, 5000 mg/Kg, day 4",0
same,Mortality per day,"Swiss female albino mice; os, 5000 mg/Kg, day 5",0
same,Mortality per day,"Swiss female albino mice; os, 5000 mg/Kg, day 6",0
same,Mortality per day,"Swiss female albino mice; os, 5000 mg/Kg, day 7",0
same,Mortality per day,"Swiss female albino mice; os, 5000 mg/Kg, day 8",0
same,Mortality per day,"Swiss female albino mice; os, 5000 mg/Kg, day 9",0
same,Mortality per day,"Swiss female albino mice; os, 5000 mg/Kg, day 10",0
same,Mortality per day,"Swiss female albino mice; os, 5000 mg/Kg, day 11",0
same,Mortality per day,"Swiss female albino mice; os, 5000 mg/Kg, day 12",0
same,Mortality per day,"Swiss female albino mice; os, 5000 mg/Kg, day 13",0
same,Mortality per day,"Swiss female albino mice; os, 5000 mg/Kg, day 14",0
